Test results taken from US6716842B2, “Antidiabetic agents” (Warner-Lambert Company, LLC, priority 2002, dated 2004).
pEC50: −log10 of the molar value. Like-named read-outs stand apart in the source and are kept apart here.

Tested on: PPAR-γ (promoter/enhancer of the murine aP2 gene in 3T3-L1 cells)
Test: 3T3-L1 transient reporter assay (AD3T3L1)
Type: cell-based
Settings: for % Max BRL: maximal effect relative to reference BRL 49653
Description: TEST E—3T3-L1 TRANSIENT REPORTER ASSAY
This assay is used to determine the potential of putative PPAR-γ ligands to activate the promoter/enhancer of the murine aP2 gene. 3T3-L1 preadipocytes are cultured on collagen coated plates in DMEM containing 10% Calf serum for 48 hours post-confluence. The cells are then cultured for approximately 3 days in DMEM containing 10% Fetal Bovine Serum (FBS), 0.5-mM methyl isobutylxanthine, 0.25 μM dexamethasone, and 1 μg/ml of insulin. Cells are detached from the plates with Trypsin-EDTA and resuspended in Phosphate Buffered Saline (PBS).
The reporter construct used in this assay is comprised of the −5.4 Kb 5′ flanking region of the murine aP2 gene inserted into the cloning site of the TKpGL3 luciferase vector. Transfection efficiency is controlled by co-transfection of the reference plasmid CMV-β-galactosidase. The reporter construct and the reference plasmid are transiently co-transfected into the cells by electroporation. The transfected cells are plated into collagen coated 96-well plates and cultured overnight. Cells are then incubated for 48 hours with the test compounds and then harvested. The lysates are measured for luciferase and β-galactosidase activities using the Dual-Light® luciferase kit from Tropix on a EG&G Berthold MicroLumat LB96P luminometer.

Row | Compound | pEC50 (Mus musculus) | % Max BRL [%] | pEC50
1 | Cc1oc(-c2ccccc2)nc1CCOc1ccc(CCC(=O)O)c(OCc2ccccn2)c1 [3-[4-[2-(5-Methyl-2-phenyl-oxazol-4-yl)-ethoxy]-2-(pyridin-2-ylmethoxy)-phenyl]-propionic acid] | 6.99 | 108 | 
2 | Cc1oc(-c2ccccc2)nc1CCOc1ccc(CCC(=O)O)c(O)c1 [3-[4-[2-(5-Methyl-2-phenyl-oxazol-4-yl)-ethoxy]-2-(hydroxy)-phenyl]-propionic acid] | 5.47 | 70 | 
3 | 3-{2-Hydroxy-4-[2-(5-methyl-2-phenyl-oxazol-4-yl)-ethoxy]-phenyl}-propionic acid ethyl ester |  | 74 | 5.23
